Laboratory results from patent US20240400547A1, “2,6-PIPERIDINEDIONE COMPOUND AND APPLICATION THEREOF” (MEDSHINE DISCOVERY INC., priority 2021, published 2024).
Structures can show the parent of a compound that is named as a salt.

What was measured:
[1] = Pharmacokinetic evaluation in beagles; assay type: in vivo, beagle; details: beagles (fed)
Text: In this study, male beagles were selected as test animals, and LC/MS/MS method was used to quantify plasma concentrations of the test compound intravenously injected or intragastrically administered to beagles at different time points, so as to evaluate the pharmacokinetic profile of the compounds of the present disclosure in beagles.
Beagle (male, 7 to 10 kg, Beijing Marshall Biotechnology Co., Ltd.).
• A clear solution of the test compound was slowly injected into beagle via the peripheral vein (fed) (vehicle: […]/10% solutol/85% H2O or 5% DMSO/10% solutol/85% H2O), or intragastrically administered to beagles (fed). For intravenous injection, 0.5 mL blood was collected via the saphenous vein puncture at 0.083, 0.25, 0.5, 1, 2, 4, 6, 8, and 24 h after administration, and placed in a EDTA-2K anticoagulant tube. The mixture was centrifuged at 3200 g for 10 minutes at 2 to 8° C., and the supernatant was separated. For oral administration, 0.5 mL blood was collected via the saphenous vein puncture at 0.083, 0.25, 0.5, 1, 2, 4, 6, 8, and 24 h after administration, and placed in a EDTA-2K anticoagulant tube. The mixture was centrifuged at 3200 g for 10 minutes at 2 to 8° C., and the supernatant was separated. Plasma drug concentrations were determined by LC-MS/MS method, and relevant pharmacokinetic parameters were calculated using Phoenix WinNonlin 6.3 pharmacokinetic software with non-compartmental model linear-log trapezoidal method.

[2] = test system: human lymphoma SU-DHL-2 cells; test: In vivo efficacy in CB17 SCID mouse model with subcutaneous xenograft tumors of human lymphoma SU-DHL-2 cells; design: species or system CB17 SCID mice; details: for Tumor volume (Day 0): Day 0 (grouping, baseline); for Tumor volume (Day 0) / Tumor volume (Day 21): average, SEM in next grid line
Protocol: The study evaluates the antitumor effect of the test compounds using a CB17 SCID mouse model with subcutaneous xenograft tumors of SU-DHL-2 human lymphoma cells.
• 1. Experimental animals: CB17 SCID mice, female, 6 to 8 weeks old, weighing 18 to 22 g. Beijing Vital River Laboratory Animal Technology Co., Ltd. • 2. Cell line: human lymphoma SU-DHL-2 cells (Cat. No ATCC-CRL-2956).
Cell culture: Human lymphoma SU-DHL-2 cells (ATCC-CRL-2956) were cultured in suspension in vitro. The culture conditions were RPMI 1640 medium with […] fetal bovine serum, 100 U/mL penicillin and 100 μg/mL streptomycin, and cultured in a 37° C., […] incubator. Routine passaging was performed twice a week. When the cell saturation reached […] and the quantity met the requirements, the cells were collected, counted, and seeded.
Tumor cell seeding and grouping: 0.2 mL (10×10^6 cells) of SU-DHL-2 cells, in a PBS:Matrigel=1:1 mixture, were subcutaneously inoculated into the right dorsal flank of each mouse. When the average tumor volume reached approximately 139 mm^3, the animals were divided into groups for drug administration. The day of grouping was recorded as Day 0, and dosing began according to the body weight of the animals.
The pharmacological experiment consisted of a dosing cycle of seven days, with medication administered once daily at a 24-hour interval. The test compounds were given intragastrically, with a total of three dosing cycles. During the experiment, the body weight and tumor size of the animals were measured twice a week, and clinical symptoms were observed and recorded daily.
The dosing for the test compounds were 10 mg/kg, 30 mg/kg, and 100 mg/kg, with a solvent composition of 10% DMSO/10% Solutol/80% water. The formula for calculating tumor volume (TV) was: 1/2×a×b^2, where a and b were the measured length and width of the tumor, respectively. The formula for calculating the Tumor Growth Inhibition (TGI) rate was: TGI (%)=[(1−(average tumor volume at the end of administration in a treatment group average tumor volume at the beginning of administration in this treatment group))/(average tumor volume at the end of treatment in the vehicle control group−average tumor volume at the beginning of treatment in the vehicle control group)]×100%. Relative Tumor Proliferation rate T/C (%): the calculation formula was as follows: T/C %=TRTV/CRTV×100% (TRTV: average RTV of the treatment group; CRTV: average RTV of the negative control group). According to the results of tumor measurement, the relative tumor volume (RTV) was calculated, and the calculation formula was RTV=Vt/V0, where V0 was the tumor volume measured at the time of group administration (i.e. Day 0), VT was the tumor volume at a certain measurement, and TRTV and CRTV were taken from the same day's data.
Statistical analysis is based on the data of RTV at the end of the experiment and analyzed by SPSS software. For comparisons between two groups, a T test was used. For comparisons among three or more groups, one-way ANOVA was utilized. If the variance was homogenous (no significant difference in F value), Tukey's method was applied for analysis. If the variance was heterogeneous (significant difference in F value), the Games-Howell method was used for testing. A p-value of <0.05 was considered statistically significant.

[3] = intragastric administration 5 mg/kg
[4] = 10 mg/kg intragastric once daily
[5] = 30 mg/kg intragastric once daily
[6] = 100 mg/kg intragastric once daily

Structure (SMILES): O=C1CCC(c2noc3ccc4c(NC(=O)CN5CCN(C[C@H]6CC[C@H](n7cc(NC(=O)c8coc(-c9ccnc(NCC%10CC%10)c9)n8)c(C(F)F)n7)CC6)CC5)cccc4c23)C(=O)N1 (some centres unmarked) [Hydrochloride of WX014]
- Area under drug-time curve (0-inf) [1, 3]: 3.20 µM·h
- Peak concentration [1, 3]: 0.41 µM
- Time to peak concentration [1, 3]: 4.00 h
- Area under drug-time curve (0-inf) ([1]; intravenous injection 0.5 mg/kg): 0.44 µM·h
- Vd ([1]; male, beagle, dog, plasma, intravenous injection 0.5 mg/kg, read-out: Apparent volume of distribution): 5.83 L/kg
- Tumor volume (Day 0) [2, 4]: 139 mm^3
- T/C (%) (Day 21) [2, 4]: 42.33%
- TGI (%) (Day 21) [2, 4]: 62.13%
- Tumor volume (Day 21) [2, 4]: 800 mm^3
- Tumor volume (Day 0) [2, 5]: 139 mm^3
- T/C (%) (Day 21) [2, 5]: 42.26%
- TGI (%) (Day 21) [2, 5]: 61.41%
- Tumor volume (Day 21) [2, 5]: 813 mm^3
- Tumor volume (Day 0) [2, 6]: 139 mm^3
- T/C (%) (Day 21) [2, 6]: 33.23%
- TGI (%) (Day 21) [2, 6]: 72.07%
- Tumor volume (Day 21) [2, 6]: 626 mm^3
